How the values were obtained:
[1] = cited from earlier work
[2] = cited from earlier work; remark: listed apart in the source
[3] = in vivo; cited from earlier work
[4] = Serum clinical chemistry of dosed rats (studies by the present inventors); conditions: AY-25329; as early as 6 hours after the first dose; 14 day study
[5] = Light microscopic analysis of liver and kidney of dosed rats (present inventors)
[6] = dogs, after treatment; cited from earlier work
[7] = rat liver mitochondria; cited from earlier work
[8] = cited from earlier work; remark: listed apart in the source
[9] = rats and mice; cited from earlier work
[10] = mice; cited from earlier work
rat hepatocytes = conditions: cited from earlier work
[11] = rats and hamsters; cited from earlier work
[12] = hamster livers; cited from earlier work
[13] = tested on: human hepatoma cell lines; conditions: cited from earlier work
[14] = in vivo; cited from earlier work; remark: listed apart in the source
[15] = 14 days of repeated dosing, 250 mg/kg/day
[16] = acute administration, male rats
[17] = male Sprague Dawley rats, 0.1, 1, 2, 3, 4 mL/kg ip, […] po
[18] = male Sprague Dawley rats, peak within 48 hours post dose

CC(=O)Nc1ccc2c(c1)Cc1ccccc1-2 [2-AAF, 2-acetylaminofluorene]
liver finding (pathology) ([1]; rats): cirrhosis-like changes in the liver | ALT (alanine aminotransferase) level in serum or plasma ([2]; rats): elevated | AST (aspartate aminotransferase) level in serum or plasma ([2]; rats): elevated

C#C[C@]1(O)CC[C@H]2[C@@H]3CCc4cc(O)ccc4[C@H]3CC[C@@]21C [17α-ethinylestradiol]
activity of liver enzyme alkaline phosphatase ([1]; male rats): initially showed significant increases, but enzyme levels decreased after 3 days | activity of liver enzyme leucine aminopeptidase ([1]; male rats): initially showed significant increases, but enzyme levels decreased after 3 days | bile flow ([1]; male rats): decrease | bilirubin output ([1]; male rats): increased | glutathione (GSH) output ([1]; male rats): decreased | liver finding (pathology) ([1]; rats): reversible intrahepatic cholestasis | liver weight ([1]; rats): increase | plasma cholesterol level ([2]; male rats): decrease | plasma level of bile salts ([2]; male rats): not changed | plasma level of bilirubin ([2]; male rats): not changed | plasma triglyceride level ([2]; male rats): decrease | ALT (alanine aminotransferase) level in serum or plasma ([2]; rats): not changed | AST (aspartate aminotransferase) level in serum or plasma ([2]; rats): not changed

S=C=Nc1cccc2ccccc12 [ANIT, α-naphthylisothiocyanate]
activity of catalase [3]: decreased | activity of superoxide dismutase [3]: decreased | serum glutamic oxaloacetic transaminase [3]: increase | serum glutamic pyruvic transaminase [3]: increase | serum level of alkaline phosphatase [3]: increase | serum level of total bilirubin [3]: increase | total bile flow [3]: reduced

O=C(CCN1CCN2CCCC2C1)N1c2ccccc2Sc2ccc(Cl)cc21 (stereo not drawn) [AY-25329]
serum level of ALT [4]: statistically significant increases | serum level of BUN [4]: statistically significant increases | serum level of cholesterol [4]: statistically significant increases | serum level of creatinine [4]: statistically significant increases | serum level of triglycerides [4]: statistically significant increases | kidney finding [5, 15]: nephrosis | liver finding [5, 15]: alterations in the peripheral lobes of the liver and in the cytoplasm of hepatocytes | hepatocytic mitotic figures (light microscopy) ([5]; liver, 6 and 24 hours): increased number | liver glycogen content (light microscopy) ([5]; liver, 6 and 24 hours): decreased

ClC(Cl)(Cl)Cl [CCl4, carbon tetrachloride]
time of peak centrilobular necrosis and inflammatory infiltration ([1]; acute administration, male rats, post dose): 24 to 48 h | time to cytoplasmic accumulation of lipids in hepatocytes [1, 16]: 1 to 3 h | time to focal necrosis and hydropic swelling of hepatocytes [1, 16]: 5 to 6 h | time to full restoration of the liver [1, 16]: ≤ 14 days | serum α-glutathione s-transferase (α-GST) level ([2]; male SD rats, 25 μL/kg po, as early as 2 hours after administration): Significant increases | time after administration within which ALT level increases [2, 17]: ≤ 3 h | time after administration within which AST level increases [2, 17]: ≤ 3 h | peak increase of ALT level [2, 18]: 5-10 fold | peak increase of AST level [2, 18]: 5-10 fold

Cl.Nc1nc2c(Cc3ccsc3)c[nH]c2c(=O)[nH]1.O [CI-1000, 4H-pyrrolo:3,2-d:pyrimidin-4-one, 2-amino-3,5-dihydro-7-(3-thienylmethyl)-monohydrochloride monohydrate]
serum ALT level [6]: increased

CC(=O)O[C@]1(C(C)=O)CC[C@H]2[C@@H]3C=C(Cl)C4=CC(=O)[C@@H]5C[C@@H]5[C@]4(C)[C@H]3CC[C@@]21C [CPA, Cyproterone acetate]
time after which continuous DNA repair activity was observed ([1]; rats, single oral dose): 16 h | occurrence of S phase cells in rat liver ([1]; rats): increased

CN(C)N=O [DMN, dimethylnitrosamine]
hydroxyproline levels (indicator of fibrosis) ([1]; rats): elevated | liver finding (pathology) ([1]; rats): severe centrilobular congestion and haemorrhagic necrosis | ALT (alanine aminotransferase) level in serum or plasma ([2]; rats): increased | serum SOD ([2]; rats): decreased | serum malondialdehyde (MDA) ([2]; rats): increased

Cc1cccc(Nc2cc(Cl)nc(SCC(=O)O)n2)c1C [Wy-14643]
oxidative phosphorylation [7]: capable of uncoupling oxidative phosphorylation

CC(=O)Nc1ccc(O)cc1 [acetaminophen]
liver finding (pathology) ([1]; rats): hepatocellular necrosis | time after dosing at which hepatotoxicity can be observed ([1]; rats): 24 h | ALT (alanine aminotransferase) level in serum or plasma ([2]; rats): statistically significant elevations | AST (aspartate aminotransferase) level in serum or plasma ([2]; rats): statistically significant elevations

CC(O)(CS(=O)(=O)c1ccc(F)cc1)C(=O)Nc1ccc(C#N)c(C(F)(F)F)c1 (stereo not drawn) [bicalutamide]
levels of CYP3A1 ([1]; rats): elevated levels | ALT / glutamic-pyruvic transaminase (GPT) level ([8]; humans): elevated levels | AST / glutamic-oxalacetic transaminase (GOT) level ([8]; humans): elevated levels | alkaline phosphatase (AL-P) level ([8]; humans): elevated levels | gamma guanosine 5′-triphosphate (gamma-GTP) level ([8]; prostate cancer patients): elevated levels

ClC(Cl)Cl [chloroform, Chloroform]
time to cytoplasmic accumulation of lipids in hepatocytes [1, 16]: 1 to 3 h | time to focal necrosis and hydropic swelling of hepatocytes [1, 16]: 5 to 6 h | markers of hepatocellular regeneration (alpha-fetoprotein, retinol-binding protein, gamma-glutamyl transferase and des-gamma-carboxyprothrombin) ([8]; humans, poisoning): increased levels | alkaline phosphatase (AL-P) level ([8]; humans): decreased levels | level of BUN [9]: increased levels | level of phosphatidyl-ethanolamine [9]: decreased levels | level of serum creatinine [9]: increased levels | level of tissue glutathione (GSH) [9]: decreased levels | levels of 5-methylcytosine and of the methylated c-myc gene [10]: Decreased levels

CCOC(=O)C(C)(C)Oc1ccc(Cl)cc1 [clofibrate]
levels of copper in neoplastic liver tissues ([1]; rat study of liver hyperplasia and liver tumors): increased levels | liver finding (pathology) ([1]; rats): hepatocellular hypertrophy, cellular proliferation, hepatomegaly, induction of CYP450 isozymes, and induction of palmitoyl CoA oxidation

O=C(O)c1cc(-c2ccc(F)cc2F)ccc1O [diflunisal]
LDH (lactic acid dehydrogenase) leakage (rat hepatocytes; rat hepatocytes): increase | intracellular ATP (rat hepatocytes; rat hepatocytes): decreased

Cc1ccc(C)c(OCCCC(C)(C)C(=O)O)c1 [gemfibrozil]
DT-diaphorase activity [11]: increase | alpha-tocopherol [11]: decrease

NN [hydrazine, Hydrazine]
liver finding (pathology) ([1]; rats): induction of fatty liver | liver weight ([1]; rats): increases | GSH (rat hepatocytes; rat hepatocytes): depletion | LDH (lactic acid dehydrogenase) leakage (rat hepatocytes; rat hepatocytes): leakage | intracellular ATP (rat hepatocytes; rat hepatocytes): depletion | rate of protein synthesis (rat hepatocytes; rat hepatocytes): decreased | viability (rat hepatocytes; rat hepatocytes): dose-dependent loss | hepatic adenomas and carcinomas [12]: developed in a dose-dependent manner

COc1ccc2c(c1)c(CC(=O)O)c(C)n2C(=O)c1ccc(Cl)cc1 [indomethacin]
liver and renal microsomal enzymes, including CYP450 ([1]; rats, single dose): reduce

Cl.Nc1c2c(nc3ccccc13)CCCC2 [tacrine, 1,2,3,4-tetrahydro-9-aminoacridine-hydrochloride]
liver finding (pathology) ([1]; rats): have not shown a correlation between tacrine exposure and hepatotoxicity | cytotoxicity (rat hepatocytes; primary rat hepatocytes): displayed cytotoxicity | cytotoxicity [13]: displayed cytotoxicity

CC(=N)S [thioacetamide, Thioacetamide]
ALT (alanine aminotransferase) level in serum or plasma ([2]; rats): elevated levels | AST (aspartate aminotransferase) level in serum or plasma ([2]; rats): elevated levels | serum BUN ([2]; rats): elevated levels | serum TNFα ([2]; rats): elevated levels | serum creatinine ([2]; rats): elevated levels | serum total bilirubin ([2]; rats): elevated levels

CCCC(CCC)C(=O)O [valproate, n-dipropylacetic acid]
liver finding (pathology) ([1]; rats): microvesicular steatosis | share of patients with elevated levels of hepatic enzymes ([8]; patients): about 40% | amounts of acyl-CoA esters (rat hepatocytes; cultured rat hepatocytes): increased amounts | LDH (lactic acid dehydrogenase) leakage (rat hepatocytes; rat hepatocytes): dose-dependent leakage

CC(c1cc2ccccc2s1)N(O)C(N)=O (stereo not drawn) [zileuton]
levels of liver peroxisomal palmitoyl CoA oxidase [14]: elevated levels | levels of microsomal cytochromes P450 2B and P450 4A [14]: elevated levels | liver size [14]: hepatomegaly

Reference: patent publication US20070027634A1, “Molecular hepatotoxicology modeling” (priority 2002, published 2007)
